The record followed here is patent US9783536B2, “Nitrogen-containing heterocyclic compound or salt thereof” (FUJIFILM Corporation, priority 2013, dated 2017).

Common to all, as to format: biochemical
Test [1] deals with T1, GST fusion human ERK2 protein (Homo sapiens, UniProt P28482).
T1 construct: purchased Carna Biosciences, Inc; host or cells: E. coli expression system
As to the kind of experiment: ERK2 enzyme assay (1). The settings on record: read-out: ERK2 enzyme inhibitory activity (1). In a few lines:
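IC50 derived from the proportion of phosphorylated 5-FAM peptide, separated from unphosphorylated peptide by microfluidic mobility shift. Compound was first preincubated 15 min at room temperature with 2.5 nmol/L kinase at pH 7.5, then 43.1 μmol/L ATP plus 4.25 μmol/L substrate reacted 120 min at 25 °C.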

The target in test [2] is T2, human PI3Kα protein (Homo sapiens, UniProt P42336).
T2 construct: purchased Carna Biosciences, Inc; host or cells: baculovirus expression system
T2 sequence (P42336 whole entry): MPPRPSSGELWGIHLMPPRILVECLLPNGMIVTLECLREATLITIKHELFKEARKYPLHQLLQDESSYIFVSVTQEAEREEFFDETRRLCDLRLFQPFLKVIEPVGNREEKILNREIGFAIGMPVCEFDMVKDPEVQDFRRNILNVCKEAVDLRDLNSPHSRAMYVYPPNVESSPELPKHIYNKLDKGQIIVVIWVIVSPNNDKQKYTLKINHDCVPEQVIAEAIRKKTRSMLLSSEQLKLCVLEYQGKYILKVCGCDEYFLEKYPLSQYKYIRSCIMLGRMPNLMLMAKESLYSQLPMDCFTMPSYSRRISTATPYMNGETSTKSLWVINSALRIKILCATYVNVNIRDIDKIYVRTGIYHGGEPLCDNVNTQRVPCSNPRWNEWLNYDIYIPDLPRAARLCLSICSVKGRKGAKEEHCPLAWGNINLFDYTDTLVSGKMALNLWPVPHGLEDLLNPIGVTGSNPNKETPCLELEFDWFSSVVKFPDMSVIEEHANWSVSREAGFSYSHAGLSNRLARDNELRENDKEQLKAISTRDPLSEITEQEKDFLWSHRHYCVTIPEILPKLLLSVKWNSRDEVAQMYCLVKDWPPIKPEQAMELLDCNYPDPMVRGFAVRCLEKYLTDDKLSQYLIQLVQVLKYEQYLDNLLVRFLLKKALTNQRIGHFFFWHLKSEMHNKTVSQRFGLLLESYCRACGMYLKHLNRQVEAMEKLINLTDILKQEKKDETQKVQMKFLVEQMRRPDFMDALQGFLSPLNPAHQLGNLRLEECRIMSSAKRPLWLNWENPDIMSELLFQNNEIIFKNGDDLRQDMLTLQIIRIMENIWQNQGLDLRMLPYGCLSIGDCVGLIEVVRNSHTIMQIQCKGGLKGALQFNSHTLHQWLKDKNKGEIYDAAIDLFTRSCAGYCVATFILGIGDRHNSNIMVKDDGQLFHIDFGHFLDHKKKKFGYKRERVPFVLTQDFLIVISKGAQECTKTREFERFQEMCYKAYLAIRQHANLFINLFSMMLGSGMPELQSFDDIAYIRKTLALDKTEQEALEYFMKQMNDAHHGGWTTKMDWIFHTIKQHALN
T2 sequence (P27986 whole entry partner): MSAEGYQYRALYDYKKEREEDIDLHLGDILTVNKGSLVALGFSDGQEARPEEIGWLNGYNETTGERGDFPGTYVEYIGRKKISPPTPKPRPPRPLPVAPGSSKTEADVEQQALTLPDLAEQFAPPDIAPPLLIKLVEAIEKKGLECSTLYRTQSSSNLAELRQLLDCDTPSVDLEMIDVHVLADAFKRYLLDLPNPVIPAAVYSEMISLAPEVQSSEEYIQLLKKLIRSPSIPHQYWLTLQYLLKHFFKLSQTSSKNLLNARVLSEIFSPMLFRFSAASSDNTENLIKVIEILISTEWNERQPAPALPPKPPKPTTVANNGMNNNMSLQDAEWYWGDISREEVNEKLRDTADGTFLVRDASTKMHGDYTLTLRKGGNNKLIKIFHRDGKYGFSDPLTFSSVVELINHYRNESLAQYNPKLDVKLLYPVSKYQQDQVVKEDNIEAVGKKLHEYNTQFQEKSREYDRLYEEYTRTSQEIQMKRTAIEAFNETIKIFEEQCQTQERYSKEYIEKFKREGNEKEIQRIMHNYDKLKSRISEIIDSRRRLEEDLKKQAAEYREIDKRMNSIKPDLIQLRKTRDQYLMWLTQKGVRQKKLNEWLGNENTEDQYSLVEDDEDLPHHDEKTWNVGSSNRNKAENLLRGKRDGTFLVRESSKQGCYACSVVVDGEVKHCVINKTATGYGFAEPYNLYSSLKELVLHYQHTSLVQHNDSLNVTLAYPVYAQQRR
As to the kind of experiment: PI3Kα enzyme assay (ADP-Glo). The settings on record: read-out: PI3Kα enzyme inhibitory activity. The method in brief:
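Biotinylated human PI3Kα (baculovirus-expressed, 4.5 nmol/L) pre-incubated 15 min with compound in Tris-HCl pH 7.5, MgCl2, BSA; reaction 60 min at 25° C with 50 μmol/L PIP2 and 100 μmol/L ATP final. ADP quantified by ADP-Glo luminescence; IC50 calculated.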

The target of test [3] is T1, GST fusion human ERK2 protein. As to the kind of experiment: ERK2 enzyme assay (2). The settings on record: read-out: ERK2 enzyme inhibitory activity (2). In a few lines:
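IC50 values come from mobility-shift measurement of phosphorylated versus unphosphorylated 5-FAM peptide substrate after EDTA quench. Beforehand, compound and 1.25 nmol/L E. coli-expressed GST–human ERK2 stood 15 min at room temperature (pH 7.5), then 1 mmol/L ATP and 4.25 μmol/L substrate (final) were added for 120 min at 25 °C.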

The mark [4] stands for this setting: 2.5 nmol/L ERK2, ATP 43.1 μmol/L.
The mark [5] stands for this setting: 4.5 nmol/L PI3Kα, PIP2 50 μmol/L, ATP 100 μmol/L.

Counter-ions that a name gives are not always drawn. Like-named read-outs stand apart in the source and are kept apart here.

T1 sequence (P28482 whole entry, the tested form may be a part): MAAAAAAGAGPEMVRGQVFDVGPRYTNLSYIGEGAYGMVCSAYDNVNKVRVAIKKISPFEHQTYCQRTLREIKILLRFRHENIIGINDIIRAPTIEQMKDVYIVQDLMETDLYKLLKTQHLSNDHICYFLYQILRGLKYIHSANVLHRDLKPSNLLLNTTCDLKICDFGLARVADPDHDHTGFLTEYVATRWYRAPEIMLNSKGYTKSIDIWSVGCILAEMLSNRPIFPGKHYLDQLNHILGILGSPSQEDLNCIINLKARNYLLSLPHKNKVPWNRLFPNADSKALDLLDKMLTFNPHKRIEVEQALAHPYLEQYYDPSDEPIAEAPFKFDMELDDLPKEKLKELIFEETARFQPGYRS

Take `CC(C)c1cnnc(Nc2ccc3ncc(Nc4cncc(OCCN5CCOCC5)c4)cc3n2)c1` [Example 0159, N^2-(5-isopropylpyridazin-3-yl)-N^7-(5-(2-morpholinoethoxyl)pyridin-3-yl)-1,5-naphthyridine-2,7-diamine]: the IC50 in test [1] (setting [4]) is less than 1000 nM; in test [2] (setting [5]), less than 1000 nM; in test [3] (1.25 nmol/L ERK2, ATP 1 mmol/L), less than 1000 nM.
With `COCc1nn(C)cc1-c1cnc2ccc(Nc3cc(C(C)C)cnn3)nc2c1` [Example 0160], the IC50 in test [1] (setting [4]) is less than 1000 nM; in test [2] (setting [5]), less than 1000 nM; in test [3] (1.25 nmol/L ERK2, ATP 1 mmol/L), less than 1000 nM.
Take `COCc1nn(C)cc1-c1cnc2ccc(Nc3cc(C)cnn3)nc2c1` [Example 0161]: the IC50 in test [1] (setting [4]) was less than 1000 nM; in test [2] (setting [5]), less than 1000 nM; in test [3] (1.25 nmol/L ERK2, ATP 1 mmol/L), less than 1000 nM.
Take `Cn1cc(-c2cnc3ccc(Nc4nnc(C(C)(C)C)s4)nc3c2)cn1` [Example 0162]: the IC50 in test [1] (setting [4]) was less than 1000 nM; in test [2] (setting [5]), less than 1000 nM; in test [3] (1.25 nmol/L ERK2, ATP 1 mmol/L) it was less than 1000 nM.
For the compound `CCc1nnc(Nc2ccc3ncc(-c4cnn(C)c4)cc3n2)s1` [Example 0163], the IC50 was less than 1000 nM in test [1] (setting [4]); less than 1000 nM in test [2] (setting [5]); less than 1000 nM in test [3] (1.25 nmol/L ERK2, ATP 1 mmol/L).
As to `CC(C)c1nnc(Nc2ccc3ncc(-c4cnn(C)c4)cc3n2)s1` [Example 0167, 5-Isopropyl-N-(7-(1-methyl-1H-pyrazol-4-yl)-1,5-naphthyridin-2-yl)-1,3,4-thiadiazole-2-amine], the IC50 in test [1] (setting [4]) is less than 1000 nM; in test [2] (setting [5]) it was less than 1000 nM; in test [3] (1.25 nmol/L ERK2, ATP 1 mmol/L), less than 1000 nM.
As to `COCc1nnc(Nc2ccc3ncc(-c4cnn(C)c4)cc3n2)s1` [Example 0170, 5-(Methoxymethyl)-N-(7-(1-methyl-1H-pyrazol-4-yl)-1,5-naphthyridin-2-yl)-1,3,4-thiadiazole-2-amine], the IC50 in test [1] (setting [4]) was less than 1000 nM; in test [2] (setting [5]), 1000 to 10000 nM; in test [3] (1.25 nmol/L ERK2, ATP 1 mmol/L), less than 1000 nM.
For `Cn1cc(-c2cnc3ccc(Nc4nnc(C5CCCC5)s4)nc3c2)cn1` [Example 0172, 5-cyclopentyl-N-(7-(1-methyl-1H-pyrazol-4-yl)-1,5-naphthyridin-2-yl)-1,3,4-thiadiazole-2-amine], the IC50 in test [1] (setting [4]) was less than 1000 nM; in test [2] (setting [5]) it was less than 1000 nM; in test [3] (1.25 nmol/L ERK2, ATP 1 mmol/L) it was less than 1000 nM.
In the case of `Cn1cc(-c2cnc3ccc(Nc4nnc(N5CCCC5)s4)nc3c2)cn1` [Example 0173, N-(7-(1-methyl-1H-pyrazol-4-yl)-1,5-naphthyridin-2-yl)-5-(pyrrolidin-1-yl)-1,3,4-thiadiazole-2-amine], the IC50 in test [1] (setting [4]) is less than 1000 nM; in test [2] (setting [5]) it was 1000 to 10000 nM; in test [3] (1.25 nmol/L ERK2, ATP 1 mmol/L), less than 1000 nM.
In the case of `CNS(=O)(=O)c1nnc(Nc2ccc3ncc(-c4cnn(C)c4)cc3n2)s1` [Example 0189, methyl ((5-((7-(1-methyl-1H-pyrazol-4-yl)-1,5-naphthyridin-2-yl)amino)-1,3,4-thiadiazol-2-yl)sulfonyl)amide sodium salt], the IC50 in test [1] (setting [4]) was less than 1000 nM; in test [2] (setting [5]) it was less than 1000 nM; in test [3] (1.25 nmol/L ERK2, ATP 1 mmol/L), less than 1000 nM.
Take `Cc1n[nH]c(C)c1-c1cnc2ccc(Nc3nnc(C4CCCC4)s3)nc2c1` [Example 0215]: the IC50 in test [1] (ERK2 enzyme assay (1)) was less than 1000 nM; in test [2], 1000 to 10000 nM; in test [3] (ERK2 enzyme assay (2)), less than 1000 nM.
As to `c1nc2ccc(Nc3nnc(C4CCC4)s3)nc2cc1-c1cnn(CCCN2CCCC2)c1` [Example 0235], the IC50 in test [1] (ERK2 enzyme assay (1)), in test [2] and in test [3] (ERK2 enzyme assay (2)) was less than 1000 nM each time.
In the case of `c1nc2ccc(Nc3nnc(C4CCCCC4)s3)nc2cc1-c1cnn(CCCN2CCCC2)c1` [Example 0236], the IC50 in test [1] (ERK2 enzyme assay (1)), in test [2] and in test [3] (ERK2 enzyme assay (2)) was less than 1000 nM each time.
For `CCOC(=O)Cc1nnc(Nc2ccc3ncc(-c4cnn(CCCN5CCCC5)c4)cc3n2)s1` [Example 0242, ethyl (5-((7-(1-(3-(pyrrolidin-1-yl)propyl)-1H-pyrazol-4-yl)-1,5-naphthyridin-2-yl)amino)-1,3,4-thiadiazol-2-yl)acetate], the IC50 in test [1] (ERK2 enzyme assay (1)), in test [2] and in test [3] (ERK2 enzyme assay (2)) was less than 1000 nM each time.
With `Cn1cc(-c2cnc3ccc(Nc4nnc(C5CCCN5)s4)nc3c2)cn1` (stereo not drawn) [Example 0246, N-(7-(1-methyl-1H-pyrazol-4-yl)-1,5-naphthyridin-2-yl)-5-(pyrrolidin-2-yl)-1,3,4-thiadiazole-2-amine], the IC50 is less than 1000 nM in test [1] (ERK2 enzyme assay (1)), 1000 to 10000 nM in test [2] and less than 1000 nM in test [3] (ERK2 enzyme assay (2)).
Consider `CC(=O)N1CCCC1c1nnc(Nc2ccc3ncc(-c4cnn(C)c4)cc3n2)s1` (stereo not drawn) [Example 0248, 1-(2-(5-((7-(1-methyl-1H-pyrazol-4-yl)-1,5-naphthyridin-2-yl)amino)-1,3,4-thiadiazol-2-yl)pyrrolidin-1-yl)ethanone], for which the IC50 in test [1] (ERK2 enzyme assay (1)) is less than 1000 nM; in test [2] it was 1000 to 10000 nM; in test [3] (ERK2 enzyme assay (2)), less than 1000 nM.
In the case of `Cn1cc(-c2cnc3ccc(Nc4nnc(C5CCNC5)s4)nc3c2)cn1` (stereo not drawn) [Example 0251], the results for the IC50 in test [1] (ERK2 enzyme assay (1)), in test [2] and in test [3] (ERK2 enzyme assay (2)) were less than 1000 nM, 1000 to 10000 nM and less than 1000 nM, respectively.
For `CN1CCC(c2nnc(Nc3ccc4ncc(-c5cnn(C)c5)cc4n3)s2)C1` (stereo not drawn) [Example 0252, N-(7-(1-methyl-1H-pyrazol-4-yl)-1,5-naphthyridin-2-yl)-5-(1-methylpyrrolidin-3-yl)-1,3,4-thiadiazole-2-amine], the IC50 was less than 1000 nM in test [1] (ERK2 enzyme assay (1)), 1000 to 10000 nM in test [2] and less than 1000 nM in test [3] (ERK2 enzyme assay (2)).
Turning to `CC(=O)N1CCC(c2nnc(Nc3ccc4ncc(-c5cnn(C)c5)cc4n3)s2)C1` (stereo not drawn) [Example 0253, 1-(3-(5-((7-(1-Methyl-1H-pyrazol-4-yl)-1,5-naphthyridin-2-yl)amino)-1,3,4-thiadiazol-2-yl)pyrrolidin-1-yl)ethanone], the IC50 in test [1] (ERK2 enzyme assay (1)) was less than 1000 nM; in test [2] it was 1000 to 10000 nM; in test [3] (ERK2 enzyme assay (2)), less than 1000 nM.
Take `Cn1cc(-c2cnc3ccc(Nc4nnc(CS(C)(=O)=O)s4)nc3c2)cn1` [Example 0257, N-(7-(1-methyl-1H-pyrazol-4-yl)-1,5-naphthyridin-2-yl)-5-((methylsulfonyl)methyl)-1,3,4-thiadiazole-2-amine]: the IC50 was less than 1000 nM in test [1] (ERK2 enzyme assay (1)), 1000 to 10000 nM in test [2] and less than 1000 nM in test [3] (ERK2 enzyme assay (2)).
As for `CS(=O)(=O)Cc1nnc(Nc2ccc3ncc(-c4cnn(CCCN5CCCC5)c4)cc3n2)s1` [Example 0258], the IC50 in test [1] (ERK2 enzyme assay (1)), in test [2] and in test [3] (ERK2 enzyme assay (2)) was less than 1000 nM throughout.
With `c1ccc(Cc2nnc(Nc3ccc4ncc(-c5cnn(CCCN6CCCC6)c5)cc4n3)s2)nc1` [Example 0261], the IC50 in test [1] (ERK2 enzyme assay (1)), in test [2] and in test [3] (ERK2 enzyme assay (2)) was less than 1000 nM in each case.
As for `c1cncc(Cc2nnc(Nc3ccc4ncc(-c5cnn(CCCN6CCCC6)c5)cc4n3)s2)c1` [Example 0262], the IC50 in test [1] (ERK2 enzyme assay (1)), in test [2] and in test [3] (ERK2 enzyme assay (2)) was less than 1000 nM each time.
For `CC(C)Cc1nnc(Nc2ccc3ncc(-c4cnn(CCCN5CCCC5)c4)cc3n2)s1` [Example 0265], the IC50 in test [1] (ERK2 enzyme assay (1)), in test [2] and in test [3] (ERK2 enzyme assay (2)) was less than 1000 nM each time.
With `c1cc(Cc2nnc(Nc3ccc4ncc(-c5cnn(CCCN6CCCC6)c5)cc4n3)s2)ccn1` [Example 0266], the IC50 in test [1] (ERK2 enzyme assay (1)), in test [2] and in test [3] (ERK2 enzyme assay (2)) was less than 1000 nM throughout.
Take `c1nc2ccc(Nc3nnc(CC4CCOC4)s3)nc2cc1-c1cnn(CCCN2CCCC2)c1` (stereo not drawn) [Example 0267]: the IC50 in test [1] (ERK2 enzyme assay (1)), in test [2] and in test [3] (ERK2 enzyme assay (2)) was less than 1000 nM each time.
